The target of the experiment is T1, dihydroceramide desaturase (Rattus norvegicus, UniProt Q5XIF5).
T1 construct: from tissue; host or cells: rat liver microsomes
T1 sequence (Q5XIF5 1-323): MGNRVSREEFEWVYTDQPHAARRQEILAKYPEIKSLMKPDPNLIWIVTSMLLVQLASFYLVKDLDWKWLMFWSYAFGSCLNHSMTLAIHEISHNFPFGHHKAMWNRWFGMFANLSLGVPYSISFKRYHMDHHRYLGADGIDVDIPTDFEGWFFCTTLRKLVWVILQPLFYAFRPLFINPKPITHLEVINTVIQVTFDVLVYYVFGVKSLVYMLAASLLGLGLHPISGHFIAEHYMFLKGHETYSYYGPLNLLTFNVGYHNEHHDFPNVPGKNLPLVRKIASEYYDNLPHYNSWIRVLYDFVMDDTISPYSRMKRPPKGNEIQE
In words: Inhibitory activity on dihydroceramide desaturase in rat liver microsomes (GC-MS quantification of the desaturated product). It counts as biochemical. The conditions noted are these: substrate N-octanoyldihydrosphingosine 10 nmoles, NADH, 37°C for 30 minutes, without preincubation, effect dose-dependent. As for the experimental part:
The inhibitory activity of the type I compounds that is claimed in this patent was tested on rat liver microsomes, prepared as described in [Michel, C. van Echten-Deckert, G.; Rother, J.; Sandhoff, K.; Wang, E.; Merrill, A. H. J. Biol. Chem. 1997, 272, 22432-22437]. The dihydroceramide desaturase activity was determined according to the procedure described in Michel, C. van Echten-Deckert, G.; Rother, J.; Sandhoff, K.; Wang, E.; Merrill, A. H. J. Biol. Chem. 1997, 272, 22432-22437, with the following modifications: compound la in increasing doses of 0, 0.6, 1.25, 2.5, 5 and 10 nmoles, was solubilized in BSA-ethanol 9:1 (100µl) and to the resulting solution 10 nmoles of substrate dissolved in 10µl of ethanol were added. To this solution was added a total of 0.3 mg of the microsomal suspension containing the desaturase, and 30 µl of a […] solution of NADH in 0.1M phosphate buffer, pH 7.5. The suspension was incubated at 37°C for 30 minutes and the reactions were stopped by adding 0.5 mL of chloroform containing 1 nmol of N-hexanoylsphingosine as an internal standard for quantification. Repeated lipid extractions with chloroform were carried out (2 x 250 µl) and the combined organic extracts were evaporated to dryness under a stream of Nitrogen. The resulting residue was treated with 50 µl of bis-trimethylsilyltrifluoroacetamide at 25°C for 60 minutes. […]
Background: Microsomes from liver hold many membrane-bound enzymes, among them those of drug oxidation.

Our source for the IC50 values is patent EP1354870A1, “DIHYD[…]” (CONSEJO SUPERIOR DE INVESTIGACIONES CIENTIFICAS, priority 2000, dated 2002).

The compound `CCCCCCCCCCCCCC1=C(C(O)C(CO)NC(=O)CCCCCCC)C1` (single isomer, unassigned) [la] showed an IC50 of 52 nM.

What is called IC50 is the concentration that inhibits the measured activity by half. Low readings indicate higher potency, high ones lower potency.
